What was measured:
Type in all cases: cell-based
[1] = system: strain mh295, microorganism classified into Labyrinthulae; experiment: Determination of DHA amount with C19:0 internal standard, strain mh295; details: from ratio of peak area to C19:0 internal standard, control 0.45
Procedure: (§1) Thirty three strains of microorganisms which were isolated from mangrove woods or sea water around Ishigaki City, Okinawa Prefecture and classified into Labyrinthulae, were cultured in a GY medium (prepared according to the method as described in “NIPPON SUISAN GAKKAISHI” vol. 68, no. 5, 674-678 (2002); GY medium containing 3% glucose and 1% yeast extract was prepared with 50% artificial sea water and adjusted to pH 6.0; this was used as a liquid medium or a plate medium with 1.5% agar) at 28° C. for 4 days, to which was added 1μg/ml of curcumin (Nacalai Tesque, Inc.) as an inhibitor for a Δ6-fatty acid desaturase. […] The resulting total lipid was subjected to methanolysis with 10% hydrogen chloride/methanol solution, and the fatty acid composition was analyzed by gas chromatography (Shimadzu Corp.; Model GC-2014). […]
(§2) To the total lipid (about 40 mg) which was extracted from the cells cultured in Examples 1 and 2 was added 0.5mg of nonadecanoic acid (C19:0) as an internal standard substance; then, the fatty acid composition after methanolysis with 10% hydrogen chloride/methanol solution was analyzed by gas chromatography (Shimadzu Corp.; Model GC-2014). From the ratio of the peak area of each fatty acid including DHA to that of C19:0, the amount of each fatty acid was determined.

[2] = system: microorganism classified into Labyrinthulae; experiment: Content of docosahexaenoic acid in fats and oils produced versus control (summary statements); details: culture with inhibitor versus no inhibitor
Procedure: as §1, §2

[3] = system: strain mh313, microorganism classified into Labyrinthulae; experiment: Determination of DHA amount with C19:0 internal standard, strain mh313; details: from ratio of peak area to C19:0 internal standard, control 0.56
Procedure: as §1, §2

[4] = system: strain mh295, microorganism classified into Labyrinthulae; experiment: DHA percentage of fatty acid composition (gas chromatography) after culture with desaturase inhibitor, strain mh295; details: GY medium, 28° C., 4 days, inhibitor added to medium (curcumin 1μg/ml), control 19.19
Procedure: (§3) Thirty three strains of microorganisms which were isolated from mangrove woods or sea water around Ishigaki City, Okinawa Prefecture and classified into Labyrinthulae, were cultured in a GY medium (prepared according to the method as described in “NIPPON SUISAN GAKKAISHI” vol. 68, no. 5, 674-678 (2002); GY medium containing 3% glucose and 1% yeast extract was prepared with 50% artificial sea water and adjusted to pH 6.0; this was used as a liquid medium or a plate medium with 1.5% agar) at 28° C. for 4 days, to which was added 1μg/ml of curcumin (Nacalai Tesque, Inc.) as an inhibitor for a Δ6-fatty acid desaturase. After termination of the culture, the microorganism was collected by centrifugal separation (1500×g, 10 min), and the cells were destroyed by ultra-sonication and extracted by chloroform/methanol (2:1; by v/v) to yield the total lipid. The resulting total lipid was subjected to methanolysis with 10% hydrogen chloride/methanol solution, and the fatty acid composition was analyzed by gas chromatography (Shimadzu Corp.; Model GC-2014). In a control, the same operation as mentioned above was made with no addition of curcumin. […]

[5] = system: strain mh375, microorganism classified into Labyrinthulae; experiment: Determination of DHA amount with C19:0 internal standard, strain mh375; details: from ratio of peak area to C19:0 internal standard, control 0.39
Procedure: as §1, §2

[6] = system: strain mh375, microorganism classified into Labyrinthulae; experiment: DHA percentage of fatty acid composition (gas chromatography) after culture with desaturase inhibitor, strain mh375; details: GY medium, 28° C., 4 days, inhibitor added to medium (curcumin 1μg/ml), control 26.02
Procedure: as §3

[7] = system: strain mh314, microorganism classified into Labyrinthulae; experiment: DHA percentage of fatty acid composition (gas chromatography) after culture with desaturase inhibitor, strain mh314; details: GY medium, 28° C., 4 days, inhibitor added to medium (curcumin 1μg/ml), control 13.27
Procedure: as §3

[8] = system: strain mh313, microorganism classified into Labyrinthulae; experiment: DHA percentage of fatty acid composition (gas chromatography) after culture with desaturase inhibitor, strain mh313; details: GY medium, 28° C., 4 days, inhibitor added to medium (curcumin 1μg/ml), control 26.03
Procedure: as §3

[9] = system: strain mh314, microorganism classified into Labyrinthulae; experiment: Determination of DHA amount with C19:0 internal standard, strain mh314; details: from ratio of peak area to C19:0 internal standard, control 0.21
Procedure: as §1, §2

`COc1cc(/C=C/C(=O)CC(=O)/C=C/c2ccc(O)c(OC)c2)ccc1O` [Example 1, curcumin] was tested, and the “amount of DHA” value [1] was 0.67 g/L, the “content of docosahexaenoic acid in the fats and oils produced, in comparison with that of the control” value [2] was “significantly increased” and the “amount of DHA” value [3] was 0.71 g/L. The “percentage of the peak area of docosahexaenoic acid” value (from here on “percentage”) [4] was 22.32%, the “amount of DHA” value [5] was 1 g/L and the “percentage” value [6] was 33.77%. For the same molecule, the “percentage” value [7] was 27.23%, the “percentage” value [8] was 31.05% and the “amount of DHA” value [9] was 0.66 g/L.

In the case of `c1cc2c(cc1[C@H]1OC[C@H]3[C@@H]1CO[C@@H]3c1ccc3c(c1)OCO3)OCO2` [Example 2, sesamin], the “amount of DHA” value [1] is reported as 0.98 g/L, the “content of docosahexaenoic acid in the fats and oils produced, in comparison with that of the control” value [2] is reported as “significantly increased” and the “amount of DHA” value [3] is reported as 1.45 g/L. For the same molecule, the “percentage” value [4] was 21.47%, the “amount of DHA” value [5] was 0.64 g/L and the “percentage” value [6] was 29.96%. The “percentage” value [7] was 22.31%, the “percentage” value [8] was 42.32% and the “amount of DHA” value [9] was 0.82 g/L.
